# In publication PMC8615111, “Phenolic Thiazoles with Antioxidant and Antiradical Activity. Synthesis, In Vitro Evaluation, Toxicity, Electrochemical Behavior, Quantum Studies and Antimicrobial Screening” (Antioxidants, 2021):
# Like-named read-outs stand apart in the source and are kept apart here.
# Assays:
# [1] = DPPH˙ radical scavenging assay; format: biochemical
# [2] = Ferric ions (Fe^3+) reducing antioxidant power by cyclic voltammetry
# Description: The evaluated compounds’ stock solutions used were prepared at a concentration of 5 mM. To test their redox properties, dilutions of 0.5 mM and 2 mM were prepared in 0.1 M HClO4 electrolyte (pH = 1.2). Screen-printed electrodes (SPEs; Metrohm DropSens, Oviedo, Spain) (planar electrodes) with graphite and gold working electrodes were used. Cyclic voltammetry (CV) and differential pulse voltammetry (DPV) were the electrochemical methods applied. The experimental conditions for each test are mentioned near the corresponding data (Appendix A).
# The antioxidant properties were evaluated in terms of their activity against some free radicals, and other compounds reported in the literature, relevant for this purpose, such as: • ferric ions (Fe^3+)—used to test the reduction of the antioxidant character of the compounds; • DPPH˙ free radical– used to test the scavenging effect of the compounds on this radical; • hydrogen peroxide (H2O2)—used to test the scavenging effect of the synthesized molecules on this compound; • 2,2,6,6-tetramethylpiperidinyl-1-oxy (TEMPO)—used to test the scavenging effect of the synthesized molecules on this compound.
# This method is based on the evaluation of the influence of the compound measured by the direct reduction of Fe[(CN)6]^3− to […]. This assay is based on the reduction of Fe^3+ to Fe^2+ due to the action of antioxidants. Based on the electrochemical behavior of the studied compounds, the interaction of Fe^3+ was followed by cyclic voltammetry (CV) via the possible changes of redox peaks characteristic for Fe^3+/Fe^2+ transition after the interaction with antioxidants (if any).
# From the voltammogram of potassium ferricyanide it can be observed that the one-electron transfer process Fe^3+/Fe^2+ occurs at 0.247 V/ 0.150 V in acidic media (red) (Figure A1; Table A1).
# Each compound presents its characteristic peaks (blue line in each figure).
# [3] = TEMPO scavenging by differential pulse voltammetry; settings: 2 mM TEMPO, one hour incubation, 0.1 M HClO4, DPV
# How it was run: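 Scavenging of the stable nitroxide radical TEMPO by the compounds, measured as antioxidant activity by differential pulse voltammetry.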
# C. albicans ATCC 102310 = assay: Antifungal activity, modified microdilution; format: cell-based; settings: Candida albicans, ATCC102310; C. albicans ATCC 102310; read-out: MIC
# HaCaT cells = assay: Cytotoxicity determination, MTT method; format: cell-based; settings: Homo sapiens, HaCaT cells, MTT, 24 h
# How it was run: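 Normal human HaCaT keratinocytes seeded at 12×10^3 cells/well and attached 24 h at 37 °C, 5% CO2 before treatment. After 24 h, MTT at 5 μg/mL/well applied for 2 h, formazan dissolved in isopropanol and read at 550 and 630 nm.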
compound,measurement,setting,value
"Cl.Oc1ccc(/C=N/Nc2nc(-c3ccc(O)c(O)c3)cs2)c(O)c1 [Compound 8b, (E)-2-(2,4-dihydroxybenzylidene)-1-(4-(3,4-dihydroxyphenyl)thiazol-2-yl)hydrazin-1-ium chloride]",% of DPPH˙ Scavenged,[1]; 1 µg/mL,39.38%
same,% of DPPH˙ Scavenged,[1]; 1.5 µg/mL,47.41%
same,% of DPPH˙ Scavenged,[1]; 2 µg/mL,54.37%
same,% of DPPH˙ Scavenged,[1]; 3 µg/mL,67.84%
same,% of DPPH˙ Scavenged,[1]; 5 µg/mL,91.38%
same,IC50,[1]; DPPH˙ scavenging,1.72 µg/mL
same,Eox (V),"[2]; compound 0.5 mM + Fe^3+/Fe^2+ (0.5 mM potassium ferricyanide), 1st Eox column",0.083 V
same,Iox (μA),"[2]; compound 0.5 mM + Fe^3+/Fe^2+ (0.5 mM potassium ferricyanide), 1st Iox column",0.34 μA
same,Ered (V),"[2]; compound + Fe^3+/Fe^2+, 1st Ered",0.079 V
same,Ired (μA),"[2]; compound + Fe^3+/Fe^2+, 1st Ired",−8.01 μA
same,Eox (V),"[2]; compound + Fe^3+/Fe^2+, 2nd Eox",0.227 V
same,Ered (V),"[2]; compound + Fe^3+/Fe^2+, 2nd Ered column",0.279 V
same,Iox (μA),"[2]; compound + Fe^3+/Fe^2+, 2nd Iox column",28.09 μA
same,Ired (μA),"[2]; compound + Fe^3+/Fe^2+, 2nd Ired",−2.81 μA
same,Eox (V),"[2]; compound + Fe^3+/Fe^2+, 4th Eox column",0.449 V
same,Iox (μA),"[2]; compound + Fe^3+/Fe^2+, 4th Iox column",28.48 μA
same,Eox (V),"[2]; compound + Fe^3+/Fe^2+, 5th Eox",0.79 V
same,Iox (μA),"[2]; compound + Fe^3+/Fe^2+, 5th Iox column",15.19 μA
same,Eox (V),"[2]; compound alone 0.5 mM in 0.1 M HClO4, 2nd Eox",0.249 V
same,Ered (V),"[2]; compound alone 0.5 mM in 0.1 M HClO4, 2nd Ered column",0.303 V
same,Iox (μA),"[2]; compound alone 0.5 mM in 0.1 M HClO4, 2nd Iox column",1.02 μA
same,Ired (μA),"[2]; compound alone 0.5 mM in 0.1 M HClO4, 2nd Ired",−1.97 μA
same,Eox (V),"[2]; compound alone 0.5 mM in 0.1 M HClO4, 3rd Eox column",0.349 V
same,Iox (μA),"[2]; compound alone 0.5 mM in 0.1 M HClO4, 3rd Iox column",1.76 μA
same,Eox (V),"[2]; compound alone 0.5 mM in 0.1 M HClO4, 4th Eox column",0.450 V
same,Iox (μA),"[2]; compound alone 0.5 mM in 0.1 M HClO4, 4th Iox column",2.29 μA
same,Eox (V),"[2]; compound alone 0.5 mM in 0.1 M HClO4, 5th Eox",0.989 V
same,Iox (μA),"[2]; compound alone 0.5 mM in 0.1 M HClO4, 5th Iox column",1.17 μA
same,oxidation signal for TEMPO after incubation with the compound,[3],both the signal shift to higher oxidation potentials and its decrease
same,MIC,C. albicans ATCC 102310,> 100 µg/mL
same,IC50,HaCaT cells; read-out: IC50,22.5 µM
same,IC50,HaCaT cells; read-out: IC50 (µg/mL),8.54 µg/mL
